Consider 1 compound from patent publication US20260069641A1, “GRAM-NEGATIVE BACTERIA FOR USE IN THE PREVENTION AND TREATMENT OF DISEASE IN POULTRY” (priority 2024, published 2026).

In the assay the test system is Eimeria acervulina, Eimeria maxima, and Eimeria tenella. Briefly: Second study: floor-pen broilers, cocci-challenge plus built-up litter, dried bacterial biomass in feed, 28 days. It counts as in vivo, broiler chickens. Conditions: column F of the chart.

Consider `CC[C@@]1([C@@H]2O[C@@H]([C@H]3O[C@@](O)(CO)[C@H](C)C[C@@H]3C)C[C@@H]2C)CC[C@H]([C@]2(C)CC[C@]3(C[C@H](O)[C@@H](C)[C@@H]([C@@H](C)[C@@H](OC)[C@H](C)C(=O)O)O3)O2)O1` [Coban, Monensin], for which the “Lesion Score Ileum Day 28” value was 0.325.
